Results: article doi:10.1101/2023.11.24.568596v1 (biorxiv, 2023)

Tests used:
Details in all cases: binder
Haspin = biological target: T1, Haspin (Homo sapiens, UniProt Q8TF76)
T1 sequence (Q8TF76 1-798): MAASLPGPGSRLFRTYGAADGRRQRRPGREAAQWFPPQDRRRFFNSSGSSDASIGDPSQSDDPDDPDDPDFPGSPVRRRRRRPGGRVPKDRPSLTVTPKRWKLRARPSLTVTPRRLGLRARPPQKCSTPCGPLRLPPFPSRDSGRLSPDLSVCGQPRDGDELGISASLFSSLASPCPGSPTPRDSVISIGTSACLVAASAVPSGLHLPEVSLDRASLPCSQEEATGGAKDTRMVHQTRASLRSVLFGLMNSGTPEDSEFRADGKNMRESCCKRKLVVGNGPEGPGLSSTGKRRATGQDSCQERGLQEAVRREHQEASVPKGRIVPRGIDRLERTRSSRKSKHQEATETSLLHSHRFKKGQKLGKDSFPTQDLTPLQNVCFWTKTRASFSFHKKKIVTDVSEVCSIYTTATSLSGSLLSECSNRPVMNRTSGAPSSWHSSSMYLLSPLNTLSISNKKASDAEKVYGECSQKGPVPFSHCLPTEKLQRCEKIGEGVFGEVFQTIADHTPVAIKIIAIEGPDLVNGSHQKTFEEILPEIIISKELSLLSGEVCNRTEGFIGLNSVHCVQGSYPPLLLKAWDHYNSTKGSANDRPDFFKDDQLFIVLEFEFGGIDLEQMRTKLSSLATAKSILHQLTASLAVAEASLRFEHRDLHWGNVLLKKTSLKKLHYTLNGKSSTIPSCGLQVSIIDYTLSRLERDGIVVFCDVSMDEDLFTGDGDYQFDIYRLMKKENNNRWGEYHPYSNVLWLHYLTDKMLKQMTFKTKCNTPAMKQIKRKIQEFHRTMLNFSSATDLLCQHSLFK

MAP3K5 = biological target: T2, MAP3K5 (Homo sapiens, UniProt Q99683)
T2 sequence (Q99683 1-1374): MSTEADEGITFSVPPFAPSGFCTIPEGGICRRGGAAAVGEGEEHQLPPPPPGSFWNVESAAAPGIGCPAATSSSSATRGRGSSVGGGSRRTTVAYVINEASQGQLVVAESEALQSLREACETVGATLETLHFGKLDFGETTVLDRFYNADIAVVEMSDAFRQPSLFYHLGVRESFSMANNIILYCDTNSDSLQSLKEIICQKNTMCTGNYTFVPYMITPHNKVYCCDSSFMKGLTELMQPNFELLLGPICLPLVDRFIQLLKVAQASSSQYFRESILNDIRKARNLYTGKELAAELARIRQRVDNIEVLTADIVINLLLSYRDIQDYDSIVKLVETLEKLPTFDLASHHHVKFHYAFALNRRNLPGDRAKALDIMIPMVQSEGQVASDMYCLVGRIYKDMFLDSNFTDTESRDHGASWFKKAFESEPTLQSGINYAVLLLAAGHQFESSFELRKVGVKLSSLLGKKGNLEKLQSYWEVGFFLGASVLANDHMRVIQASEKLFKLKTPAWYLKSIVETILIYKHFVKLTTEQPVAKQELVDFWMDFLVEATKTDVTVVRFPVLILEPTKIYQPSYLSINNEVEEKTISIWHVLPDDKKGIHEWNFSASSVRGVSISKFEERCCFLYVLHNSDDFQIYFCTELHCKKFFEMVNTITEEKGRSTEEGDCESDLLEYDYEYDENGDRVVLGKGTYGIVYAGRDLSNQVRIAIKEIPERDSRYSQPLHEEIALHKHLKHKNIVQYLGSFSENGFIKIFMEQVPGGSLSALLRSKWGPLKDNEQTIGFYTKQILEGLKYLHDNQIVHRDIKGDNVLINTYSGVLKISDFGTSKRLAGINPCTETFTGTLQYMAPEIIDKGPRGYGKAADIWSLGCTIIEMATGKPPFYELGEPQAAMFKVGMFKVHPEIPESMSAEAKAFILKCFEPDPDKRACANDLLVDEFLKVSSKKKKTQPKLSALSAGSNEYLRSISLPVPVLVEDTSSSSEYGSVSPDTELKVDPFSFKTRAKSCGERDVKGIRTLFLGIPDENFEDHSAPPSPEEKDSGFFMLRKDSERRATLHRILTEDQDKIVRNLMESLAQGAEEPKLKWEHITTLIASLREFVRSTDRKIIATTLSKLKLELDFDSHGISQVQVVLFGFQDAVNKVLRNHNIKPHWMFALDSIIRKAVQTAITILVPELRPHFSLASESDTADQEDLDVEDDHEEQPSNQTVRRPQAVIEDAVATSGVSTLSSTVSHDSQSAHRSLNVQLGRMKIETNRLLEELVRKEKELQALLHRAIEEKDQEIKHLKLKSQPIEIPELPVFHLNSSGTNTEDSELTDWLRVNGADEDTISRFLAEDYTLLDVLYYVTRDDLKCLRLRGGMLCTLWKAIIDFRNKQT

CLK3 = CLK3 (Homo sapiens, UniProt P49761)
CDKL1 = CDKL1 (Homo sapiens, UniProt Q00532)
PIM3 = PIM3 (Homo sapiens, UniProt Q86V86)

CLK3, sequence (P49761 whole entry): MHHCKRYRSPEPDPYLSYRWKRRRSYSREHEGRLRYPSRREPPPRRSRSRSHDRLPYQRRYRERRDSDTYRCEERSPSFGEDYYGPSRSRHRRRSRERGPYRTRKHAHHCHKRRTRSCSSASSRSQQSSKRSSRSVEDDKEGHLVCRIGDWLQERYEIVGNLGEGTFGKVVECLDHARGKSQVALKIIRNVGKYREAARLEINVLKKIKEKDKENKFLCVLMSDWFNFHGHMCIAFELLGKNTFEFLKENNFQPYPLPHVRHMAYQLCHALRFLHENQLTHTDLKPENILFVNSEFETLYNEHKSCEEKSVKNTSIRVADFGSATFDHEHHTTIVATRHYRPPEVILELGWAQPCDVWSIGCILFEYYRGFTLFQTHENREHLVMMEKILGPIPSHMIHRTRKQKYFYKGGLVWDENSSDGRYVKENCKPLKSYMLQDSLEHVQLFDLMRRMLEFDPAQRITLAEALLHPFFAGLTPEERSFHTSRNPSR
CDKL1, sequence (Q00532 whole entry): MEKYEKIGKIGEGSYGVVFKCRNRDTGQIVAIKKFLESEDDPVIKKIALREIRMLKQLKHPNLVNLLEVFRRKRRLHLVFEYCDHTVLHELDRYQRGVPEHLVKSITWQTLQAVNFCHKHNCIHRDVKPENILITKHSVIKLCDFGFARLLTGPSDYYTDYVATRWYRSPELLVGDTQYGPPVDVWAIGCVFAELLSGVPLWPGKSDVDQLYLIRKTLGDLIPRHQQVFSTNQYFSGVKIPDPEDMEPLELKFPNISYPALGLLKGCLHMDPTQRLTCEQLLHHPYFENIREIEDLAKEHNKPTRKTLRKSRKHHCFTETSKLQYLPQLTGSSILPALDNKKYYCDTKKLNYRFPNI

With `Cc1cccc(-c2ccc(-c3cc4cnc(NC(CO)CO)nc4n(CCCCN)c3=O)c(Cl)c2)n1` [compound 24, 8-(4-Aminobutyl)-6-(2-chloro-4-(6-methylpyridin-2-yl)phenyl)-2-((1,3-dihydroxypropan-2-yl)amino)pyrido[2,3-d]pyrimidin-7(8H)-one] the “ΔTm MR24 (24)” value (Haspin) was -1.4 °C, the “ΔTm MR24 (24)” value (MAP3K5) was 9.0 °C and the “ΔTm MR24 (24)” value (CLK3) was -0.2 °C. The “ΔTm MR24 (24)” value (CDKL1) was 0.9 °C and the “ΔTm MR24 (24)” value (PIM3) was -1.9 °C.

In the case of `Cc1cccc(-c2ccc(-c3cc4cnc(NCCCc5ccc(N)cc5)nc4n(CCCCN)c3=O)c(Cl)c2)n1` [compound 25, 8-(4-Aminobutyl)-2-((3-(4-aminophenyl)propyl)amino)-6-(2-chloro-4-(6-methylpyridin-2-yl)phenyl)pyrido[2,3-d]pyrimidin-7(8H)-one], the “ΔTm 25” value (Haspin) is reported as 1.9 °C, the “ΔTm 25” value (MAP3K5) is reported as 11.8 °C and the “ΔTm 25” value (CLK3) is reported as -0.3 °C. The “ΔTm 25” value (CDKL1) was 2.1 °C and the “ΔTm 25” value (PIM3) was -0.8 °C.

`CNc1ncc2cc(-c3ccc(-c4cccc(C)n4)cc3Cl)c(=O)n(CCC3CCNCC3)c2n1` [compound 22, 6-(2-Chloro-4-(6-methylpyridin-2-yl)phenyl)-2-(methylamino)-8-(2-(piperidin-4-yl)ethyl)pyrido[2,3-d]pyrimidin-7(8H)-one] was tested, and the “ΔTm 22” value (Haspin) was -1.2 °C, the “ΔTm 22” value (MAP3K5) was 12.0 °C and the “ΔTm 22” value (CLK3) was -0.4 °C. For the same compound, the “ΔTm 22” value (CDKL1) was 0.4 °C and the “ΔTm 22” value (PIM3) was -1.2 °C.

In the case of `CNc1ncc2cc(-c3ccc(-c4cccc(C)n4)cc3Cl)c(=O)n(CCCCN)c2n1` [compound 20, MRLW5], the “ΔTm MRLW5 (20)” value (Haspin) is reported as -0.4 °C, the “ΔTm MRLW5 (20)” value (MAP3K5) is reported as 12.3 °C and the “ΔTm MRLW5 (20)” value (CLK3) is reported as 0.2 °C. The “ΔTm MRLW5 (20)” value (CDKL1) was -0.1 °C and the “ΔTm MRLW5 (20)” value (PIM3) was -1.2 °C.

With `Cc1cccc(-c2ccc(-c3cc4cnc(NCCCN5CCOCC5)nc4n(CCCCN)c3=O)c(Cl)c2)n1` [compound 26, MR26] the “ΔTm MR26 (26)” value (Haspin) was -1.5 °C, the “ΔTm MR26 (26)” value (MAP3K5) was 9.8 °C and the “ΔTm MR26 (26)” value (CLK3) was -0.4 °C. The “ΔTm MR26 (26)” value (CDKL1) was 0.5 °C and the “ΔTm MR26 (26)” value (PIM3) was -0.1 °C.

With `CNc1ncc2cc(-c3ccc(-c4cccc(C)n4)cc3Cl)c(=O)n(C[C@H]3CC[C@H](N)CC3)c2n1` [compound 23, 23] the “ΔTm 23” value (Haspin) was 1.5 °C, the “ΔTm 23” value (MAP3K5) was 12.4 °C and the “ΔTm 23” value (CLK3) was 1.0 °C. For the same compound, the “ΔTm 23” value (CDKL1) was 0.1 °C and the “ΔTm 23” value (PIM3) was 0.3 °C.
